Columns and labels:
[1] = tested on: murine melanome cell line B16-F10; test: melanin synthesis, colorimetric assay, basal and after α-MSH; assay type: cell-based; settings: Mus musculus, 1 μg/ml, alpha MSH 1 μM, read-out: inhibition of alpha MSH activity (melanin increase)
Protocol: The modulating effect of unsaturated fatty hydroxy acid derivatives on melanogenesis was analysed. To do this, measurement of melanin synthesis by colorimetric assay was performed on a murine melanome cell line: line B16-F10.
The effect of products was investigated in a basal situation and after stimulation by α-MSH in order to determine depigmenting capacity.
Levels of extracellular and intracellular melanin were measured by spectrophotometry at a wavelength of 405 nm according to the protocol described by Anob et al., 1999. The amount of pigment was determined using a standard melanin range and analysis on Microwin software (Berthold Biotechnologies). A total protein assay was carried out for intracellular melanin samples by means of the BCA-Copper method at 540 nm. The standard range was made up using standard protein BSA (Bovine Serum Albumin).

[2] = tested on: prostaglandin 6KF1α; test: production of prostaglandin 6KF1α by keratinocytes stimulated with calcium ionophore A23187 (ELISA); assay type: cell-based; settings: 3 μg/ml, A23187 1 μm 5 hours
Protocol: A suspension of keratinocytes in DMEM 10% foetal calf serum was divided into 6 well plates (1.2. 106cells/wells) and incubated for 16 hours at 37° C. in a 5% CO2 atmosphere. The keratinocytes were then rinsed with PBS in order to eliminate non adhering cells then exposed to the products to be tested included in DMEM without foetal calf serum (which could interfere with the assay).
The concentration tested in culture was 3 μg/ml. This was retained as the test concentration after a preliminary evaluation test for cytotoxicity (neutral red) and is not cytotoxic.
For each treatment, three wells were tested. Cells were pre-incubated for 60 minutes with the products to be tested then a stimulating agent was added to stimulate the arachidonic acid cascade (calcium ionophore) which was added for 5 hours: calcium ionophore A23187 was used at a concentration of 1 μm.
After 5 hours in culture, the culture medium for each well was recovered, centrifuged at 3000 rpm and stored at −80° C.
The production of prostaglandin 6KF1α for each of the tests was measured using a EUROMEDEX Elisa Kit.
Results are expressed as the percentage activity/stimulated control.

[3] = tested on: Interleukin 8; test: release of Interleukin 8 by keratinocytes NHK stimulated with PMA + calcium ionophore A23187 (ELISA); assay type: cell-based, human; settings: 3 μg/ml, keratinocytes, PMA + A23187 6 hours
Protocol: In this study, carried out using 96 well plates, we evaluated the activity of hydroxyl alkine acids on the production of Interleukin 8 produced in the keratinocytes by phorbol ester PMA and calcium ionophore A23187.
A suspension of keratinocytes in supplemented KSFM was divided between 96 well plates (3.10^4 cells/wells) and incubated for 16 hours at 37° C. under an atmosphere of 5% CO2. The keratinocytes were then rinsed with PBS in order to eliminate non adhering cells then exposed to the products to be tested included in non supplemented KSFM (which could interfere with the assay).
The concentration tested in culture was 3 μg/ml. This was retained after a preliminary test to evaluate cytotoxicity (neutral red) and is not cytotoxic.
3 wells were used for each treatment. Cells were preincubated for 60 minutes with the products to be tested then stimulated, in parallel to negative controls without stimulant: Phorbol Myristate Acetate (PMA) 1 μm+Calcium ionophore (A23187) 0.1 μm.
Incubation for 6 hours at 37° C. in a humid air atmosphere containing 5% CO2.
The culture medium for each of the wells was recovered, centrifuged at 3000 rpm and stored at −80° C.
Cytokine assay: IL8 was assayed using the ELISA kit immunoenzyme method (immunotech).
The results are given as percentage activity/stimulated control.
The compounds according to the invention were evaluated in terms of anti-inflammatory activity on the release of Interleukin 8 by human keratinocytes NHK stimulated by phorbol ester PMA+calcium ionophore A23187.

## Oc1ccc(O)cc1 [hydroquinone]
[1]
  inhibition at 1 µg/mL: 60%

## O=C(O)C(F)=CCCCCCCCCCO [n=8, R=H, Rn=H, R1=F, 12-hydroxy-dodeca-2-fluoro-2-enoic acid]
[2]
  % inhibiting activity of evaluated molecules on the production of PG6KF1α Inflammation: 44%
[3]
  % inhibition of IL-8 release: Non-active

## O=C(O)/C=C/CCCCCCCCCO [n=8, R=H, Rn=H, R1=H, 12-hydroxy-dodeca-2t-enoic acid]
[2]
  % inhibiting activity of evaluated molecules on the production of PG6KF1α Inflammation: 32%
[3]
  % inhibition of IL-8 release: Non-active

Reference: patent publication US8158811B2, “Unsaturated fatty hydroxy acid derivatives and the dermocosmetologic use thereof” (Pierre Fabre Dermo-Cosmetique, priority 2005, dated 2012)
